The target in one experiment is T1, human NET (Homo sapiens, UniProt P23975).
T1 construct: expressed in transfected cells
The experiment in a line: Human norepinephrine transporter assay, [3H]nisoxetine binding to cell membrane homogenates. The procedure:
Human Norepinephrine Transporter Assay
Nonspecific binding was determined in the presence of 1 μM desipramine. Following incubation, the samples were filtered rapidly under vacuum through glass fiber filters (GF/B, Packard) presoaked with 0.3% PEI, and rinsed several times with ice-cold 50 mM Tris-HCl using a 96-sample cell harvester (Unifilter, Packard). The filters were dried then counted for radioactivity in a scintillation counter (Topcount, Packard) using a scintillation cocktail (Microscint 0, Packard). The results were expressed as a percent inhibition of the control radioligand specific binding. The standard reference compound was protriptyline, which was tested in each experiment at several concentrations to obtain a competition curve from which its IC50 is calculated. Typical assay volumes were 250 μL in 96-well plate and compounds are solubilized in water.

Experiment [1] addresses T2, Nitric oxide synthase (neuronal, human recombinant) nNOS (Homo sapiens, UniProt P29475).
T2 construct: purchased Axxora LLC ALX-201-068
The experiment in a line: nNOS (human) enzyme assay, [3H]-L-arginine to L-citrulline conversion. The class given is biochemical.
Description: (§2) Primary stock solutions of test compounds at a concentration of 6 mM are prepared. The primary stock solutions of each test compound are prepared freshly in distilled water on the day of study. […] Concentration range of test compound utilized for nNOS are 0.001 to 300 μM and for eNOS are 0.003 to 1000 μM. The vehicle of the test compound or inhibitor is used as blank control. […] The IC50 concentration of L-NAME was run in parallel as a control.
(§3) All incubations are performed in duplicate:
Total reaction volume is 60 μL.
(§4) Mix using a vortex mixer and incubate the above reaction mixture at 37° C. in an incubator for 30 mins.
(§5) Add 400 μL of ice-cold Stop Buffer at the end of the incubation period to stop the reaction. (The EDTA in the Stop Buffer chelates all of the available calcium.) Mix using a vortex mixer and transfer the reaction samples to spin cups and centrifuge using a microcentrifuge, at 13,000 rpm for 30 sec. at room temperature.
(§6) Remove the spin cups from the holder and transfer 450 μL of eluate (containing the unbound L-citrulline) to scintillation vials. Add 3 mL of scintillation fluid and quantify the radioactivity in a liquid scintillation counter.
(§7) Data is analyzed using a Sigmoidal dose-response (variable slope) curve to determine the IC50 value of the test compound.
(§8) Y=Bottom+(Top−Bottom)/(1+10̂((Log IC50−X)*Hill Slope))

For experiment [2], the target named is T3, Nitric oxide synthase (endothelial, human recombinant) eNOS (Homo sapiens, UniProt P29474).
T3 construct: purchased Axxora LLC ALX-201-070
T3 sequence (P29474 whole entry): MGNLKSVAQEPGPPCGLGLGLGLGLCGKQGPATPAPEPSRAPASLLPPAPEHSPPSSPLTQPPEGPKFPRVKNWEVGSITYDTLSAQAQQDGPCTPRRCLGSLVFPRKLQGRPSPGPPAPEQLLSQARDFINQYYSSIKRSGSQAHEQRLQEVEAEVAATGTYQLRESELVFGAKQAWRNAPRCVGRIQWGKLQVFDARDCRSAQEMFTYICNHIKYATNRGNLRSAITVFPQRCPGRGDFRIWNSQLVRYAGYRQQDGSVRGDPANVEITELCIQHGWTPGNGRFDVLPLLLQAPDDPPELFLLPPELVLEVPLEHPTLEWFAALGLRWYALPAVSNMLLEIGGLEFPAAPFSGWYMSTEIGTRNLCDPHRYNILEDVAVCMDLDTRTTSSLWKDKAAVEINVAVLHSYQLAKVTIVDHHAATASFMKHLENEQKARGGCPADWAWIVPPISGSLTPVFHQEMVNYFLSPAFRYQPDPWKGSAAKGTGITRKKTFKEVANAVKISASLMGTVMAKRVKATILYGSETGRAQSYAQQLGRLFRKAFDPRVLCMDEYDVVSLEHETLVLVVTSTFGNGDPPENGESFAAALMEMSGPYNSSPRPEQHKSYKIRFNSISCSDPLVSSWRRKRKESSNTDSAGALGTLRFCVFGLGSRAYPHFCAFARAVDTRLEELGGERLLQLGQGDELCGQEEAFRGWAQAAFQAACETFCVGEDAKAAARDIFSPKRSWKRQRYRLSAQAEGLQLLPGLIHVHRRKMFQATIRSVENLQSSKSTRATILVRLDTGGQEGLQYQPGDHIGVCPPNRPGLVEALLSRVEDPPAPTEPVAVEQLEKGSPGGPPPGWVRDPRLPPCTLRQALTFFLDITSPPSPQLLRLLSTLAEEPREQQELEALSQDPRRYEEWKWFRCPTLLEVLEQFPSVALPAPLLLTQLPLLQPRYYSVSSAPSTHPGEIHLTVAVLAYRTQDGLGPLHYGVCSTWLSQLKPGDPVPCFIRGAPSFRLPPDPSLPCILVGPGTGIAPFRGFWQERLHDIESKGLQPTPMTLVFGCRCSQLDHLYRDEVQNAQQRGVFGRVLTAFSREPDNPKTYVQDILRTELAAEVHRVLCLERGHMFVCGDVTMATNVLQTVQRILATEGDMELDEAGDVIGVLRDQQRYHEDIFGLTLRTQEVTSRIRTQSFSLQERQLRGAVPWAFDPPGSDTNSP
Briefly: eNOS (human) enzyme assay, [3H]-L-arginine to L-citrulline conversion. The format is biochemical.
Description: as §2, §3
Total reaction volume is 60 μL.
as §4, §5, §6, §7, §8

For experiment [3], the system named is migraine. The settings on record: migraine patients, single i.v. administration; cited from earlier work.
For experiment [4], the system named is L5/L6 spinal nerve ligation model of neuropathic pain (Chung model). Briefly: Chung L5/L6 spinal nerve ligation model, thermal hyperalgesia. The format is in vivo, rat. To be noted: rats, 30 mg/kg i.p., one dose. As to the method:
The L5/L6 spinal nerve was surgically ligated and animals allowed to recover for a period of 7-10 days. During this period animals develop neuropathic pain. The reduction of paw withdrawal latency after an infrared thermal stimulus (post-SNL) was measured following the induction period for comparison with pre-surgery baseline levels (BL). Following drug administration, thermal hyperalgesia was measured at various time points.
(§1) (a) Chung Model of Injury-induced Neuropathic-like Pain: The experimental designs for the Chung Spinal Nerve Ligation SNL Model assay for neuropathic pain are depicted in FIGS. 1a and 1b. Nerve ligation injury was performed according to the method described by Kim and Chung (Kim and Chung, Pain 50:355-363, 1992). This technique produces signs of neuropathic dysesthesias, including tactile allodynia, thermal hyperalgesia, and guarding of the affected paw. Rats were anesthetized with halothane, and the vertebrae over the L4 to S2 region were exposed. The L5 and L6 spinal nerves were exposed, carefully isolated, and tightly ligated with 4-0 silk sutures distal to the DRG. After ensuring homeostatic stability, the wounds were sutured, and the animals allowed to recover in individual cages. Sham-operated rats were prepared in an identical fashion except that the L5/L6 spinal nerves were not ligated. […]

Experiment [5] has the same test system. The experiment in a line: Chung L5/L6 spinal nerve ligation model, tactile allodynia. The format is in vivo, rat. The settings on record: rats, 30 mg/kg i.p., one dose. The procedure: The L5/L6 spinal nerve was surgically ligated and animals allowed to recover for a period of 7-10 days. During this period animals develop neuropathic pain. The reduction of tactile thresholds (post-SNL) was measured following the induction period for comparison with pre-surgery baseline levels (BL). Following drug administration, tactile allodynia was measured at various time points with calibrated von-Frey filaments.
as §1

For experiment [6], the system named is migraine. To be noted: open pilot study; cited from earlier work.
Setting [7] is: Table 2, compounds tested as hydrochloride salts, read-out: IC50, Human NET activity.
The mark [8] stands for this setting: Table 2, compounds tested as hydrochloride salts.
Setting [9] is: IC50, Human NET activity, Table 2, compounds tested as hydrochloride salts.

Each structure is given as a SMILES string. “Also recorded” adds a separate entry of the source. Counter-ions that a name gives are not always drawn. Like-named read-outs stand apart in the source and are kept apart here.

T1 sequence (P23975 whole entry): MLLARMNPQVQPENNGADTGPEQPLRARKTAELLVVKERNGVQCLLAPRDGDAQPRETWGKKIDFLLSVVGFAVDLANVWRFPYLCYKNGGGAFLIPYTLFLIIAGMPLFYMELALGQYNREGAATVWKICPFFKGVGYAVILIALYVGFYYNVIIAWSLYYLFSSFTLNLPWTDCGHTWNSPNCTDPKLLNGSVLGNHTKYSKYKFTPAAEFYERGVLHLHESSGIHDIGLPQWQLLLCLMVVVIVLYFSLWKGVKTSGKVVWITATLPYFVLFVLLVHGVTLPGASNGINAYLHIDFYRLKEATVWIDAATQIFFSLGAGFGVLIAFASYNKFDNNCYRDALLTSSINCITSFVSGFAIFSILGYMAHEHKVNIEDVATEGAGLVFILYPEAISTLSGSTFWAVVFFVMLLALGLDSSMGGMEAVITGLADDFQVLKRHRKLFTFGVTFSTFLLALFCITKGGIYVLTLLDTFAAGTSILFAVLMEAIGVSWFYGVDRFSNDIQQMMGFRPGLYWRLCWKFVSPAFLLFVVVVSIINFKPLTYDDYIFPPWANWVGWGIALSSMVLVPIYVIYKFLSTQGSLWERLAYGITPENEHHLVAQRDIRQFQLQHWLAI
T2 sequence (P29475 whole entry): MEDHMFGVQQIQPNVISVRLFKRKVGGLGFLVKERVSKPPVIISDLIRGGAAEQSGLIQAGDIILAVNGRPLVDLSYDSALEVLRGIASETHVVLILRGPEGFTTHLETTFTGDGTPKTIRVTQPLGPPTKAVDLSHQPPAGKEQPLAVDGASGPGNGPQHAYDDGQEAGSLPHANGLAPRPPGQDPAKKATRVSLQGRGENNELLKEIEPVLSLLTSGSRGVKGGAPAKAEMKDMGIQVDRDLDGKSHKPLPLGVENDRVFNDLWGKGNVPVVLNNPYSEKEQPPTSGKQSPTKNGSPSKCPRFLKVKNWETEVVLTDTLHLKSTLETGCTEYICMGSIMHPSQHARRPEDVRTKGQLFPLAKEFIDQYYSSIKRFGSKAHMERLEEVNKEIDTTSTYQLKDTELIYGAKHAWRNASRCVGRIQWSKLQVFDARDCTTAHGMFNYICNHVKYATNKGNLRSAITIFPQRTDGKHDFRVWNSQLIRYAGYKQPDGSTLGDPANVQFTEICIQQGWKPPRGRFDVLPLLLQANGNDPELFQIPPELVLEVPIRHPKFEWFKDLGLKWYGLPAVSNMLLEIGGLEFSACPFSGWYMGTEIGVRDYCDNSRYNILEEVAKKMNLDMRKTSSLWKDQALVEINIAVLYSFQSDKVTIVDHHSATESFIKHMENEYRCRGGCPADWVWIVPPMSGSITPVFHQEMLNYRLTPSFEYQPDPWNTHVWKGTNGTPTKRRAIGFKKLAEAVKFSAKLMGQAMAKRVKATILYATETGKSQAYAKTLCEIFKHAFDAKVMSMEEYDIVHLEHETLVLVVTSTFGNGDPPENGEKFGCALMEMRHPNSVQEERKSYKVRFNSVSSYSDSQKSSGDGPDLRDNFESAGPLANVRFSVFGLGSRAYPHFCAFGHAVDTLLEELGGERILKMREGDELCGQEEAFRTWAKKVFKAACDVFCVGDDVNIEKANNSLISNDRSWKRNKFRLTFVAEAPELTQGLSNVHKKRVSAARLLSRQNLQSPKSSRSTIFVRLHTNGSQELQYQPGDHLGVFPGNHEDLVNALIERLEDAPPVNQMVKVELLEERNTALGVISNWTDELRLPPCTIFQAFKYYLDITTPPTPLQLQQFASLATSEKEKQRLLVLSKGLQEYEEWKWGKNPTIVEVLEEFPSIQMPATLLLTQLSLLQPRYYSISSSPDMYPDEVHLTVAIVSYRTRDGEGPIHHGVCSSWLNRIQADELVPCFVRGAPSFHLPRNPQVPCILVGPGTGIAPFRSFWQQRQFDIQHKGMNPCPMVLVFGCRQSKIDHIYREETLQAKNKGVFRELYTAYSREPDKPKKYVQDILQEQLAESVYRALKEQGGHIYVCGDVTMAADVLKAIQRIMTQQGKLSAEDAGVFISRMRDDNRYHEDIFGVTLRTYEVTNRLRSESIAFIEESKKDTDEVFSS

By IC50 is commonly meant the midpoint of a concentration-inhibition curve. As for `CN[C@H]1CC[C@H](c2c[nH]c3ccc(NC(=N)c4cccs4)cc32)CC1` [Compound 1b, N-(3-(4-(Methylamino)cyclohexyl)-1H-indol-5-yl)thiophene-2-carboximidamide], the IC50 on human NET (setting [7]) is 2000 nM.
Turning to `CN(C)C1CC=C(c2c[nH]c3ccc(NC(=N)c4cccs4)cc23)CC1` (single isomer, unassigned) [Compound 2a, N-(3-(4-(Dimethylamino)cyclohex-1-enyl)-1H-indol-5-yl)thiophene-2-carboximidamide], the IC50 in experiment [1] (setting [8]) stood at 865 nM; on human NET (setting [9]) it was 1100 nM; in experiment [2] (setting [8]), 47100 nM.
Taken in the same sequence, the figures for `CN(C)C1CCC(c2c[nH]c3ccc(NC(=N)c4cccs4)cc23)CC1` (stereo not drawn) [Compound 4, N-(3-(4-(dimethylamino)cyclohexyl)-1H-indol-5-yl)thiophene-2-carboximidamide] were 3440 nM, 190 nM and 31800 nM.
For the compound `CCNC1CC=C(c2c[nH]c3ccc(NC(=N)c4cccs4)cc23)CC1` (racemic) [(±)-6, N-(3-(4-(ethylamino)cyclohex-1-enyl)-1H-indol-5-yl)thiophene-2-carboximidamide], the IC50 in experiment [1] (setting [8]) was 1420 nM; at human NET (setting [7]) it was 280 nM; in experiment [2] (setting [8]), 40300 nM.
Turning to `CN(C)C1CC=C(c2c[nH]c3ccc(NC(=N)c4cccs4)cc23)CC1` (racemic) [(±)-2, N-(3-(4-(dimethylamino)cyclohex-1-enyl)-1H-indol-5-yl)thiophene-2-carboximidamide], the IC50 in experiment [1] (setting [8]) came to 3000 nM; on human NET (setting [9]), 550 nM; in experiment [2] (setting [8]), 51400 nM.
Taken in the same sequence, the figures for `CN(C)C1CC=C(c2c[nH]c3ccc(NC(=N)c4cccs4)cc23)CC1` (single isomer, unassigned) [Compound 2b, N-(3-(4-(Dimethylamino)cyclohex-1-enyl)-1H-indol-5-yl)thiophene-2-carboximidamide] were 839 nM, 960 nM and 96000 nM.
As to `CN[C@H]1CC[C@@H](c2c[nH]c3ccc(NC(=N)c4cccs4)cc32)CC1` [Compound 1a, N-(3-(4-(Methylamino)cyclohexyl)-1H-indol-5-yl)thiophene-2-carboximidamide], the IC50 at human NET (setting [7]) was 400 nM.
With `CCNC1CCCC(c2c[nH]c3ccc(NC(=N)c4cccs4)cc23)C1` (racemic) [(±)-10, N-(3-(3-(ethylamino)cyclohexyl)-1H-indol-5-yl)thiophene-2-carboximidamide], at human NET (IC50, Human NET, Table 3), the IC50 came out at 1700 nM.
Take `CNC1CC=C(c2c[nH]c3ccc(NC(=N)c4cccs4)cc23)CC1` (single isomer, unassigned) [Compound 3a, N-(3-(4-(Methylamino)cyclohex-1-enyl)-1H-indol-5-yl)thiophene-2-carboximidamide]: the figures for the IC50 (in experiment [1] (setting [8]); on human NET (setting [7]); in experiment [2] (setting [8])) were 439 nM, 1100 nM and 53400 nM, respectively.
For the compound `CNC(=N)NCCC[C@H](N)C(=O)O` [L-NMMA, N^G-monomethyl-L-arginine], in the experiment on migraine [3], the response rate is on record as 67%.
For `CCNC1CCC(c2c[nH]c3ccc(NC(=N)c4cccs4)cc23)C1` (mixture of isomers) [Compound 11, N-(3-(3-(ethylamino)cyclopentyl)-1H-indol-5-yl)thiophene-2-carboximidamide], the IC50 in experiment [1] (Table 3) is 257 nM; in experiment [2] (Table 3), 14300 nM.
Consider `CNC1CCCC(c2c[nH]c3ccc(NC(=N)c4cccs4)cc23)C1` (single isomer, unassigned) [Compound 7b, N-(3-(3-(Methylamino)cyclohexyl)-1H-indol-5-yl)thiophene-2-carboximidamide dihydrochloride [(−)-cis-enantiomer]], for which the IC50 amounted to 5200 nM at human NET (IC50, Human NET, Table 3) and 75000 nM in experiment [2] (Table 3).
With `CNC1CC=C(c2c[nH]c3ccc(NC(=N)c4cccs4)cc23)CC1` (racemic) [(±)-3, N-(3-(4-(methylamino)cyclohex-1-enyl)-1H-indol-5-yl)thiophene-2-carboximidamide], the IC50 in experiment [1] (setting [8]) worked out at 1730 nM; on human NET (setting [7]), 1300 nM; in experiment [2] (setting [8]) it was 32000 nM.
Turning to `CNC1CCCC(c2c[nH]c3ccc(NC(=N)c4cccs4)cc23)C1` (single isomer, unassigned) [Compound 7a, N-(3-(3-(Methylamino)cyclohexyl)-1H-indol-5-yl)thiophene-2-carboximidamide dihydrochloride [(+)-cis-enantiomer]], the results for the “reversal of thermal hyperalgesia (antihyperalgesic effect)” value in experiment [4] and in experiment [4] (listed as (+)−7a) were “clear antihyperalgesic effect” and “reversal of thermal hyperalgesia”, respectively. In addition, the IC50 is 1000 nM at human NET (IC50, Human NET, Table 3) and 49300 nM in experiment [2] (Table 3). In addition, the “reversal of tactile allodynia (antiallodynic effect)” value in experiment [5] was “reversal of tactile hyperthesia; also recorded: pronounced antiallodynic effect”; in experiment [5] (listed as (+)−7a) it was “reversal of tactile allodynia”.
With `CNC1CCC(c2c[nH]c3ccc(NC(=N)c4cccs4)cc23)CC1` (mixture of isomers) [Compound 1, N-(3-(4-(methylamino)cyclohexyl)-1H-indol-5-yl)thiophene-2-carboximidamide], the IC50 at human NET (setting [7]) is 520 nM.
For the compound `CNC1CCCC(c2c[nH]c3ccc(NC(=N)c4cccs4)cc23)C1` (single isomer, unassigned) [(±)-7, N-(3-(-3-(Methylamino)cyclohexyl)-1H-indol-5-yl)thiophene-2-carboximidamide], the IC50 at human NET (IC50, Human NET, Table 3) was found to be 2500 nM; in experiment [2] (Table 3) it was 77600 nM.
Take `CCN[C@H]1CC[C@H](c2c[nH]c3ccc(NC(=N)c4cccs4)cc32)CC1` (single isomer, unassigned) [Compound 5a, trans-N-(3-(4-(Ethylamino)cyclohexyl)-1H-indol-5-yl)thiophene-2-carboximidamide]: the IC50 on human NET (setting [7]) was found to be 2800 nM.
On the same count and under the same terms, in the case of `CCNC1CCC(c2c[nH]c3ccc(NC(=N)c4cccs4)cc23)CC1` (mixture of isomers) [Compound 5, N-(3-(4-(ethylamino)cyclohexyl)-1H-indol-5-yl)thiophene-2-carboximidamide] it was 270 nM.
Consider `CCNC1CCCC(c2c[nH]c3ccc(NC(=N)c4cccs4)cc23)C1` (racemic) [(±)-9, N-(3-(3-(ethylamino)cyclohexyl)-1H-indol-5-yl)thiophene-2-carboximidamide], for which the IC50 at human NET (IC50, Human NET, Table 3) worked out at 760 nM.
In the case of `CNC1CCCC(c2c[nH]c3ccc(NC(=N)c4cccs4)cc23)C1` (racemic) [(±)-8, N-(3-(3-(methylamino)cyclohexyl)-1H-indol-5-yl)thiophene-2-carboximidamide], the IC50 was found to be 880 nM on human NET (IC50, Human NET, Table 3) and 7760 nM in experiment [2] (Table 3).
Take `CCN[C@H]1CC[C@@H](c2c[nH]c3ccc(NC(=N)c4cccs4)cc32)CC1` (single isomer, unassigned) [Compound 5b, cis-N-(3-(4-(Ethylamino)cyclohexyl)-1H-indol-5-yl) thiophene-2-carboximidamide]: the IC50 at human NET (setting [7]) worked out at 380 nM.
For the compound `CNC1CC=C(c2c[nH]c3ccc(NC(=N)c4cccs4)cc23)CC1` (single isomer, unassigned) [Compound 3b, N-(3-(4-(Methylamino)cyclohex-1-enyl)-1H-indol-5-yl)thiophene-2-carboximidamide], the results for the IC50 (in experiment [1] (setting [8]); at human NET (setting [7]); in experiment [2] (setting [8])) were 537 nM, 1100 nM and 40900 nM, respectively.
Turning to `C/C1=C2/[N-][C@H]([C@H](CC(N)=O)[C@@]2(C)CCC(=O)NC[C@@H](C)OP(=O)([O-])O[C@H]2[C@@H](O)[C@@H](n3cnc4cc(C)c(C)cc43)O[C@@H]2CO)[C@]2(C)N=C(/C(C)=C3N=C(/C=C4N=C1[C@@H](CCC(N)=O)C\4(C)C)[C@@H](CCC(N)=O)[C@]\3(C)CC(N)=O)[C@@H](CCC(N)=O)[C@]2(C)CC(N)=O.[Co+3].[OH-]` [hydroxycobalamin], in the experiment with migraine [6], the “patients with a reduction in the frequency of migraine attack of 50%” value is given as 53%.
